From ChEMBL document CHEMBL1123903, “Synthesis and antimalarial effects of 4-[(7-chloro-4-quinolinyl)amino]-2-[(diethylamino)methyl] -6-alkylphenols and their N omega-oxides” (1987)

Key:
Type in all cases: functional
[1] = tested on: Mus musculus; experiment: Number of mice surviving at 60 days postinfection when administered as a single dose of 320 mg/kg (sc) 72-h post infection
[2] = tested on: Mus musculus; experiment: Number of mice surviving at 60 days postinfection when administered as a single dose of 160 mg/kg (sc) 72-h post infection
[3] = tested on: Plasmodium berghei; experiment: Change in mean survival time of trophozoite-induced Plasmodium berghei infection after 40 mg/kg subcutaneous dose
[4] = tested on: Mus musculus; experiment: Number of mice surviving at 60 days postinfection when administered as a single dose of 80 mg/kg (sc) 72-h post infection (delta MST)
[5] = tested on: Mus musculus; experiment: Number of mice surviving at 60 days postinfection when administered as a single dose of 640 mg/kg (sc) 72-h post infection
[6] = tested on: Plasmodium berghei; experiment: Change in mean survival time of trophozoite-induced Plasmodium berghei infection after 20 mg/kg subcutaneous dose
[7] = tested on: Plasmodium berghei; experiment: Change in mean survival time of trophozoite-induced Plasmodium berghei infection after 80 mg/kg subcutaneous dose
[8] = tested on: Mus musculus; experiment: Antimalarial activity tested against trophozoite induced Plasmodium berghei in mice (Mus musculus) expressed as change in mean survival time after a single dose of 320 mg/kg (subcutaneously); conditions: route subcutaneous
[9] = tested on: Plasmodium berghei; experiment: Change in mean survival time of trophozoite-induced Plasmodium berghei infection after 160 mg/kg subcutaneous dose
[10] = tested on: Mus musculus; experiment: Antimalarial activity tested against trophozoite induced Plasmodium berghei in mice (Mus musculus) expressed as change in mean survival time after a single dose of 640 mg/kg (subcutaneously); conditions: route subcutaneous
[11] = tested on: Mus musculus; experiment: Number of mice surviving at 60 days postinfection when administered as a single dose of 40 mg/kg (sc) 72-h post infection (delta MST)
[12] = tested on: Mus musculus; experiment: Number of mice surviving at 60 days postinfection when administered as a single dose of 160 mg/kg (sc) 72-h post infection (delta MST)
[13] = tested on: Mus musculus; experiment: Antimalarial activity tested against trophozoite induced Plasmodium berghei in mice (Mus musculus) expressed as change in mean survival time after a single dose of 10 mg/kg (subcutaneously); conditions: route subcutaneous
[14] = tested on: Mus musculus; experiment: Number of mice surviving at 60 days postinfection when administered as a single dose of 320 mg/kg (sc) 72-h post infection (delta MST)
[15] = tested on: Mus musculus; experiment: Number of mice surviving at 60 days postinfection when administered as a single dose of 640 mg/kg (sc) 72-h post infection (delta MST)
[16] = tested on: Mus musculus; experiment: Number of mice surviving at 60 days postinfection when administered as a single dose of 20 mg/kg (sc) 72-h post infection (delta MST)
[17] = tested on: Mus musculus; experiment: Number of mice surviving at 60 days postinfection when administered as a single dose of 80 mg/kg (sc) 72-h post infection
[18] = Antimalarial activity tested against trophozoite induced Plasmodium berghei in mice (Mus musculus) expressed as change in mean survival time after a single dose of 40 mg/kg (subcutaneously); conditions: route subcutaneous

Compound	Cures [1]	Cures [2]	Delta MST [3]	Cures [4]	Cures [5]	Delta MST [6]	Delta MST [7]	Delta MST [8]	Delta MST [9]	Delta MST [10]	Cures [11]	Cures [12]	Delta MST [13]	Cures [14]	Cures [15]	Cures [16]	Cures [17]	Delta MST [18]
CCN(CC)Cc1cc(Nc2ccnc3cc(Cl)ccc23)cc(C2CCCCC2)c1O	5	5	5.7 days	2	5	0.5 days	10.6 days											
CCN(CC)Cc1cc(Nc2ccnc3cc(Cl)ccc23)cc(Cc2ccccc2)c1O			1.7 days			0.2 days	3.4 days	7.8 days	3.7 days	7.9 days								
CCN(CC)Cc1cc(Nc2cc[n+]([O-])c3cc(Cl)ccc23)cc(Sc2ccc(Cl)cc2)c1O			4.1 days			0.5 days	3.4 days	9 days	7.6 days	14.4 days								
CCC(C)c1cc(Nc2ccnc3cc(Cl)ccc23)cc(CN(CC)CC)c1O (centres undefined)	5		27.7 days	2	5	18 days	29.4 days		40.2 days		2	1	9.8 days					
CCN(CC)Cc1cc(Nc2ccnc3cc(Cl)ccc23)cc(C)c1O			13 days	4	5	10.4 days	13.7 days	17.2 days	20.7 days		1	4	7 days	3				
CCC(C)c1cc(Nc2cc[n+]([O-])c3cc(Cl)ccc23)cc(CN(CC)CC)c1O (centres undefined)			20.9 days		5	12.6 days	21.9 days	39.7 days	30 days			2	4.6 days	3				
CCN(CC)Cc1cc(Nc2cc[n+]([O-])c3cc(Cl)ccc23)cc(C(C)(C)C)c1O			1.7 days			0.1 days	2.9 days	6.7 days	4.1 days	6.1 days			3.7 days					
CCc1cc(Nc2cc[n+]([O-])c3cc(Cl)ccc23)cc(CN(CC)CC)c1O			13.2 days	3	4	5.5 days	10.9 days	13.4 days	13.4 days	1.4 days	1	2	3.7 days	3				
CCN(CC)Cc1cc(Nc2ccnc3cc(Cl)ccc23)cc(C(C)(C)C)c1O			0.5 days			0.1 days	1.7 days	5.9 days	1.9 days	6.3 days								
CCN(CC)Cc1cc(Nc2ccnc3cc(Cl)ccc23)cc(Sc2ccc(Cl)cc2)c1O			7.3 days			3 days	8.8 days		10.1 days	13.1 days								
CCN(CC)Cc1cc(Nc2cc[n+]([O-])c3cc(Cl)ccc23)cc(C(C)C)c1O			15.5 days	1		11.8 days	15.5 days	29.7 days	21.7 days	23.7 days	1	1	3 days	1	4			
CCN(CC)Cc1cc(Nc2ccnc3cc(Cl)ccc23)cc(C(C)C)c1O	5	5	27.9 days	4	5	18.1 days	25.4 days				3		11.1 days					
CCN(CC)Cc1cc(Nc2cc[n+]([O-])c3cc(Cl)ccc23)cc(C2CCCCC2)c1O			3.9 days		5	0.5 days	8.5 days	24.9 days	22.4 days			3		4				
CCN(CC)Cc1cc(Nc2ccnc3cc(Cl)ccc23)c2c(c1O)CCCC2			12.8 days	2	3	12.6 days	14.8 days	28.3 days	15.1 days		2	2	6.8 days	3				
CC(C)(C)NCc1cc(Nc2ccnc3cc(Cl)ccc23)cc(-c2ccc(Cl)cc2)c1O [TEBUQUINE]			19.9 days	3		14.9 days	14.9 days	16.4 days	14.9 days	17.1 days	4	2		1		3		
CCN(CC)Cc1cc(Nc2cc[n+]([O-])c3cc(Cl)ccc23)cc(C)c1O			14.3 days	1	5	7.6 days	11.5 days	19 days	13 days		2	3	1.4 days	3				
CCN(CC)Cc1cc(Nc2ccnc3cc(Cl)ccc23)ccc1O.Cl	5	5	11.9 days		5	8.3 days											2	
CCc1cc(Nc2ccnc3cc(Cl)ccc23)cc(CN(CC)CC)c1O				2		12.1 days	20.7 days	34.4 days	14.4 days	27.4 days	1	4	6.1 days	4	4			12.4 days
